# Experimental data taken from ChEMBL document CHEMBL4842386, “Discovery of Reldesemtiv, a Fast Skeletal Muscle Troponin Activator for the Treatment of Impaired Muscle Function” (J Med Chem, 2021).
# What was measured:
# [1] = system: Psoas muscle; experiment: Increase in psoas muscle force in rabbit skinned single fiber preparation at a calcium concentration that produces a force increase that is 25% of the maximum response in a control preparation by skinned fast skeletal muscle fiber assay; format: functional; details: Oryctolagus cuniculus
# [2] = system: Psoas muscle; experiment: Activation of fast twitch skeletal muscle in rabbit psoas muscle myofibrils by measuring increase in myofibril ATPase activity at 25% calcium concentration; format: functional; details: Oryctolagus cuniculus
# [3] = Metabolic stability in human liver microsomes assessed as intrinsic clearance measured after 90 mins by HPLC/MS/MS analysis; format: ADME, Microsome; details: read-out: CLH
# [4] = Thermodynamic solubility of the compound; format: physicochemical; details: read-out: Therm_solubility
# [5] = biological target: hERG (KCNH2) (Homo sapiens, UniProt Q12809); experiment: Displacement of [3H]astemizole from human ERG expressed in HEK293 cells at 100 uM relative to control; format: cell-based; details: HEK293 cells that express hERG, probe [3H]astemizole
# [6] = biological target: Voltage-gated inwardly rectifying potassium channel KCNH2 (Homo sapiens, UniProt Q12809); experiment: Inhibition of human ERG expressed in HEK293 cells at -80 mV holding potential by patch clamp assay; format: cell-based
# [7] = Plasma protein binding in male rat assessed as unbound fraction; format: ADME, cell-free
# [8] = Clearance in male Sprague-Dawley rat at 1 mg/kg, po administered as single dose measured up to 24 hrs by HPLC analysis; format: ADME, organism-based; details: in vivo
# [9] = Volume of distribution at steady state in male Sprague-Dawley rat at 1 mg/kg, po administered as single dose measured up to 24 hrs by HPLC analysis; format: ADME, organism-based; details: in vivo
# [10] = Oral bioavailability in male Sprague-Dawley rat at 1 mg/kg administered as single dose measured up to 24 hrs by HPLC analysis; format: ADME, organism-based; details: in vivo
# [11] = Metabolic stability in male rat liver microsomes assessed as intrinsic clearance measured after 90 mins by HPLC/MS/MS analysis; format: ADME, Microsome; details: read-out: CLH
# [12] = Intrinsic clearance in male rat hepatocytes; format: ADME, cell-based, Hepatocyte; details: read-out: CLH
# [13] = biological target: T1, Nuclear receptor subfamily 1 group I member 2 (Homo sapiens, UniProt O75469); experiment: Transactivation of human PXR transfected in DPX2 cells assessed as CYP3A4 induction at 10 uM by luciferase reporter gene assay; format: ADME, cell-based; details: dpx2, 10 µM
# T1 sequence (O75469 whole entry): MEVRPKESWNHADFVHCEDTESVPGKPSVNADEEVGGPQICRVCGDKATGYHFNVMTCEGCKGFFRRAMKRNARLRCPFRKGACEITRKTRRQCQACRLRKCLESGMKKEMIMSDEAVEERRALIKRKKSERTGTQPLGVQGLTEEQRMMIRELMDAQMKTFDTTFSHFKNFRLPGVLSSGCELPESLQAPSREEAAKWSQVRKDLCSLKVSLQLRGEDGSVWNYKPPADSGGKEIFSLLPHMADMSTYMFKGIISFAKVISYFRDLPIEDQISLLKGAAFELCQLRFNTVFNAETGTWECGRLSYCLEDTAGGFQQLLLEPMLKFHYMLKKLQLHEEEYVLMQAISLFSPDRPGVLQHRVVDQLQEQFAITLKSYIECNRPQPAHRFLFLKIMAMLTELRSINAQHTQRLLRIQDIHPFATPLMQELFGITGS
# [14] = Drug distribution in Sprague-Dawley rat brain to blood ratio at 100 mg/kg, po by HPLC analysis; format: ADME, organism-based
# [15] = Drug distribution in Sprague-Dawley rat Soleus muscle to blood ratio at 100 mg/kg, po by HPLC analysis; format: ADME, organism-based
# [16] = Drug distribution in Sprague-Dawley rat extensor digitorum longus to blood ratio at 100 mg/kg, po by HPLC analysis; format: ADME, organism-based
# [17] = Drug distribution in Sprague-Dawley rat plasma to blood ratio at 100 mg/kg, po by HPLC analysis; format: ADME, organism-based; details: in vivo
# [18] = Efflux ratio of apparent permeability in human Caco-2 cells; format: ADME, cell-based
# [19] = Clearance in male Sprague-Dawley rat at 3 mg/kg, po administered as single dose measured up to 24 hrs by HPLC analysis; format: ADME, organism-based; details: in vivo
# [20] = Volume of distribution at steady state in male Sprague-Dawley rat at 3 mg/kg, po administered as single dose measured up to 24 hrs by HPLC analysis; format: ADME, organism-based; details: in vivo
# [21] = Oral bioavailability in male Sprague-Dawley rat at 3 mg/kg administered as single dose measured up to 24 hrs by HPLC analysis; format: ADME, organism-based; details: in vivo
# [22] = Intrinsic clearance in human hepatocytes; format: ADME, cell-based, Hepatocyte; details: read-out: CLH
# [23] = system: Extensor digitorum longus; experiment: Increase in muscle tension in rat extensor digitorum longus muscle rat model assessed as free plasma concentration to increase muscle tension at subtetanic nerve stimulation rate of 30 Hz; format: functional, tissue-based
# [24] = Clearance in mouse at 3 mg/kg, po administered as single dose measured up to 24 hrs by HPLC analysis; format: ADME, organism-based; details: in vivo
# [25] = Volume of distribution at steady state in mouse at 3 mg/kg, po administered as single dose measured up to 24 hrs by HPLC analysis; format: ADME, organism-based; details: in vivo
# [26] = Oral bioavailability in mouse at 3 mg/kg administered as single dose measured up to 24 hrs by HPLC analysis; format: ADME, organism-based; details: in vivo
# [27] = Clearance in female Sprague-Dawley rat at 3 mg/kg, po administered as single dose measured up to 24 hrs by HPLC analysis; format: ADME, organism-based; details: in vivo
# [28] = Volume of distribution at steady state in female Sprague-Dawley rat at 3 mg/kg, po administered as single dose measured up to 24 hrs by HPLC analysis; format: ADME, organism-based; details: in vivo
# [29] = Oral bioavailability in female Sprague-Dawley rat at 3 mg/kg administered as single dose measured up to 24 hrs by HPLC analysis; format: ADME, organism-based; details: in vivo
# [30] = Metabolic stability in female rat liver microsomes assessed as intrinsic clearance measured after 90 mins by HPLC/MS/MS analysis; format: ADME, Microsome; details: read-out: CLH
# [31] = Intrinsic clearance in female rat hepatocytes; format: ADME, cell-based, Hepatocyte; details: read-out: CLH
# [32] = Plasma protein binding in female rat assessed as unbound fraction; format: ADME, cell-free
# [33] = Clearance in Beagle dog at 3 mg/kg, po administered as single dose measured up to 24 hrs by HPLC analysis; format: ADME, organism-based, Canis lupus familiaris; details: in vivo
# [34] = Volume of distribution at steady state in Beagle dog at 3 mg/kg, po administered as single dose measured up to 24 hrs by HPLC analysis; format: ADME, organism-based, Canis lupus familiaris; details: in vivo
# [35] = Oral bioavailability in Beagle dog at 3 mg/kg administered as single dose measured up to 24 hrs by HPLC analysis; format: ADME, organism-based, Canis lupus familiaris; details: in vivo
# [36] = Plasma protein binding in dog assessed as unbound fraction; format: ADME, cell-free, Canis lupus familiaris
# [37] = Metabolic stability in dog liver microsomes assessed as intrinsic clearance measured after 90 mins by HPLC/MS/MS analysis; format: ADME, Canis lupus familiaris, Microsome; details: read-out: CLH
# [38] = Intrinsic clearance in dog hepatocytes; format: ADME, cell-based, Canis lupus familiaris, Hepatocyte; details: read-out: CLH
# [39] = Clearance in cynomolgus monkey at 3 mg/kg, po administered as single dose measured up to 24 hrs by HPLC analysis; format: ADME, organism-based, Macaca fascicularis; details: in vivo
# [40] = Volume of distribution at steady state in cynomolgus monkey at 3 mg/kg, po administered as single dose measured up to 24 hrs by HPLC analysis; format: ADME, organism-based, Macaca fascicularis; details: in vivo
# [41] = Oral bioavailability in cynomolgus monkey at 3 mg/kg administered as single dose measured up to 24 hrs by HPLC analysis; format: ADME, organism-based, Macaca fascicularis; details: in vivo
# [42] = Plasma protein binding in monkey assessed as unbound fraction; format: ADME, cell-free, Macaca mulatta; details: rhesus monkey
# [43] = Metabolic stability in monkey liver microsomes assessed as intrinsic clearance measured after 90 mins by HPLC/MS/MS analysis; format: ADME, Macaca mulatta, Microsome; details: rhesus monkey, read-out: CLH
# [44] = Intrinsic clearance in monkey hepatocytes; format: ADME, cell-based, Macaca mulatta, Hepatocyte; details: rhesus monkey, read-out: CLH
# [45] = Plasma protein binding in human assessed as unbound fraction; format: ADME, cell-free
# Sequence of hERG (KCNH2) (Q12809 whole entry): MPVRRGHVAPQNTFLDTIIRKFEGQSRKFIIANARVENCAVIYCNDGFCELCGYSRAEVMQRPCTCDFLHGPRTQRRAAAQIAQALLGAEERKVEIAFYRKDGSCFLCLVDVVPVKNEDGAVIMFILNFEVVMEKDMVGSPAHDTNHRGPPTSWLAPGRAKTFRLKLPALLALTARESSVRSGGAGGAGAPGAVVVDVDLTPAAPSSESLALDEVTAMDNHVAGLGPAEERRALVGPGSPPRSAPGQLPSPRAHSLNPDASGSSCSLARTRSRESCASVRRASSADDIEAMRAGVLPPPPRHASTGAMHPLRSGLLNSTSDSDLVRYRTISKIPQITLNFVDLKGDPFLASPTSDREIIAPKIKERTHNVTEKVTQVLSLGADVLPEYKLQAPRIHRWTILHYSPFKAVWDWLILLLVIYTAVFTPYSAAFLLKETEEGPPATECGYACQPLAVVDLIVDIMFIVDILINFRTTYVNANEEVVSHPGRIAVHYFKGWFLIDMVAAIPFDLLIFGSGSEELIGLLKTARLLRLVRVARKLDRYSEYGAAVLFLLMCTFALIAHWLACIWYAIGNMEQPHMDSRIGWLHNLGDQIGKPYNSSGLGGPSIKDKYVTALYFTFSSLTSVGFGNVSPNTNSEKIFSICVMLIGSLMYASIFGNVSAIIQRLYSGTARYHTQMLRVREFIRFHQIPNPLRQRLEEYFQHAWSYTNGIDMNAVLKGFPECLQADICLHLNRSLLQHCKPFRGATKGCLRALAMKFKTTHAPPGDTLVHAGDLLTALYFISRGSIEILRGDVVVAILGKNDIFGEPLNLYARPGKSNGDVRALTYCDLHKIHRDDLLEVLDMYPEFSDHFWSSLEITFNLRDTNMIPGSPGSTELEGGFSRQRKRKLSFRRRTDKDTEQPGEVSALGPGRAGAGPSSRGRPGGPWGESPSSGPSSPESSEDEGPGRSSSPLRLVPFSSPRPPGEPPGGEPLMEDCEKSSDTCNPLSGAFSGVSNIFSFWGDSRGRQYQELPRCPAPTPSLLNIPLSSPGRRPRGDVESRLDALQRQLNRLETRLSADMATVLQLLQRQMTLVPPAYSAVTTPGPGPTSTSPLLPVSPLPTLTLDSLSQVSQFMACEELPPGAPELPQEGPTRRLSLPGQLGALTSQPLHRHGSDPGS
# Sequence of Voltage-gated inwardly rectifying potassium channel KCNH2 (Q12809 whole entry): as above
compound,measurement,setting,value
CC(C)(CNc1nc(-c2cccc(C(N)=O)c2)ns1)c1ccc(F)cc1,EC30,[1],1.4 µM
same,EC40,[2],0.5 µM
same,CLint scaled,[3],0.66 L/h/kg
same,solubility thermodynamic,[4],< 27 µM
NC(=O)c1cnn(-c2ccc(NCC3(c4ncccc4F)CCC3)nn2)c1,EC30,[1],0.7 µM
same,EC40,[2],0.5 µM
same,CLint scaled,[3],< 0.84 L/h/kg
same,inhibition at 100 µM,[5],19%
same,IC50,[6],> 100 µM
same,fraction unbound,[7],0.42
same,CL/F,[8],8.16 L/h/kg
same,Vdss,[9],2.2 L/kg
same,bioavailability,[10],12%
same,CLint scaled,[11],1.8 L/h/kg
same,CLint scaled,[12],22.7 L/h/kg
NC(=O)c1cccc(-c2cnc(NC[C@]3(c4ncccc4F)C[C@H](F)C3)nc2)c1,EC30,[1],0.8 µM
same,EC40,[2],0.3 µM
same,CLint scaled,[3],< 0.84 L/h/kg
same,Activity,[13],68%
same,inhibition at 100 µM,[5],46%
same,fraction unbound,[7],0.15
same,Kp,[14],0.15
same,Kp,[15],1.16
same,Kp,[16],1.2
same,Ratio,[17],1.85
same,efflux ratio,[18],1.8
same,CL/F,[19],3.54 L/h/kg
same,Vdss,[20],1.7 L/kg
same,bioavailability,[21],21%
same,CLint scaled,[11],2.28 L/h/kg
same,CLint scaled,[12],2.28 L/h/kg
CC(C)(CNc1nc(-c2ccc(C(N)=O)cc2)ns1)c1ccc(F)cc1,EC30,[1],2.3 µM
same,EC40,[2],0.5 µM
same,CLint scaled,[3],0.54 L/h/kg
same,solubility thermodynamic,[4],< 27 µM
NC(=O)c1ccn(-c2cnc(NC[C@]3(c4ncccc4F)C[C@H](F)C3)nc2)c1 [RELDESEMTIV],EC30,[1],0.8 µM
same,EC40,[2],0.6 µM
same,CLint scaled,[3],< 0.84 L/h/kg
same,Activity,[13],18%
same,inhibition at 100 µM,[5],33%
same,CLint scaled,[22],< 0.84 L/h/kg
same,EC50,[23],38 µM
same,fraction unbound,[7],0.5
same,Kp,[14],0.063
same,Kp,[15],0.77
same,Kp,[16],0.85
same,Ratio,[17],1
same,efflux ratio,[18],3.1
same,CL/F,[19],4.44 L/h/kg
same,Vdss,[20],2.6 L/kg
same,CLint scaled,[11],0.9 L/h/kg
same,CLint scaled,[12],3.36 L/h/kg
same,CL/F,[24],5.16 L/h/kg
same,Vdss,[25],3.3 L/kg
same,bioavailability,[26],47%
same,CL/F,[27],1.44 L/h/kg
same,Vdss,[28],1.3 L/kg
same,bioavailability,[29],45%
same,CLint scaled,[30],0.9 L/h/kg
same,CLint scaled,[31],13 L/h/kg
same,fraction unbound,[32],0.5
same,CL/F,[33],1.32 L/h/kg
same,Vdss,[34],1.9 L/kg
same,bioavailability,[35],25%
same,fraction unbound,[36],0.5
same,CLint scaled,[37],0.66 L/h/kg
same,CLint scaled,[38],2.22 L/h/kg
same,CL/F,[39],0.78 L/h/kg
same,Vdss,[40],1.3 L/kg
same,bioavailability,[41],26%
same,fraction unbound,[42],0.49
same,CLint scaled,[43],1.08 L/h/kg
same,CLint scaled,[44],1.38 L/h/kg
same,fraction unbound,[45],0.49
CC(C)(CNc1ccc(-c2cccc(C(N)=O)c2)nn1)c1ccc(F)cc1,EC30,[1],3 µM
same,EC40,[2],1.2 µM
same,CLint scaled,[3],0.48 L/h/kg
same,solubility thermodynamic,[4],86 µM
